What all share (assay): Agar dilution test (Isosensitest agar), MIC
Type in all cases: cell-based
(Agar dilution tests growth on a series of plates holding different concentrations.)

One assay has as its system E.coli 455/7. The note with it: Escherichia coli; strain E.coli 455/7; Agardilutionstest/Isosensitestagar; read-out: MHK.
For the next assay, the system named is Staph. aur. 1756. The note with it: strain Staph. aur. 1756; Agardilutionstest/Isosensitestagar; read-out: MHK. The source says: (§1) In der nachstehenden Tabelle sind einige MHK-Werte im Vergleich zu 1-Cyclopropyl-6-fluor-1,4-dihydro-4-oxo-7-(1-piperazinyl)-3-chinolincarbonsäure (Ciprofloxacin) angegeben: […]
The next assay deals with Staph. aur. FK 422. The note with it: strain Staph. aur. FK 422; Agardilutionstest/Isosensitestagar; read-out: MHK.
Description: as §1

Another assay concerns Streptoc. faecal. 27101. Conditions: strain Streptoc. faecal. 27101; Agardilutionstest/Isosensitestagar; read-out: MHK.
Description: as §1

For another assay, the system named is Streptoc. faecal. 9790. The note with it: strain Streptoc. faecal. 9790; Agardilutionstest/Isosensitestagar; read-out: MHK.
Description: as §1

The next assay relates to Pseudomonas aerug. W. The note with it: strain Pseudomonas aerug. W.; Agardilutionstest/Isosensitestagar; read-out: MHK.
Another assay concerns Providenicia 12052. Conditions: read-out: MHK.
Description: as §1

A further assay deals with Staph. aur. 133. The note with it: strain Staph. aur. 133; Agardilutionstest/Isosensitestagar; read-out: MHK.
Description: as §1

The mark [1] stands for this setting: strain Providenicia 12052, Agardilutionstest/Isosensitestagar.

Molecules are shown by their SMILES. Converted amounts (≈) assume the structure as drawn. Structures can show the parent of a compound that is named as a salt. Where two headings read alike, the source gives them in different places.

`O=C(O)c1cn(C2CC2)c2cc(N3CCN4CCC3C4)c(F)cc2c1=O` (stereo not drawn) [Beispiel 1, 1-Cyclopropyl-7-(1,4-diazabicyclo[3.2.1]oct-4-yl)-6-fluor-1,4-dihydro-4-oxo-3-chinolincarbonsäureHydrochlorid]: the MIC with E.coli 455/7 worked out at 2 µg/mL; with Staph. aur. 1756 it was 0.25 µg/mL; in the assay with Staph. aur. FK 422, 0.25 µg/mL; with Streptoc. faecal. 27101, 0.25 µg/mL; with Streptoc. faecal. 9790, 0.25 µg/mL; in the assay with Pseudomonas aerug. W. it was 0.5 µg/mL.
`O=C(O)c1cn(C2CC2)c2c(Cl)c(N3CCN4CCC3C4)c(F)cc2c1=O` (stereo not drawn) [Beispiel 3, 8-Chlor-1-cyclopropyl-7-(1,4-diazabicyclo[3.2.1]ocl-4-yl)-6-fluor-1,4-dihydro-4-oxo-3-chinolincarbonäure-Hydrochlorid-Hydrat]: the MIC worked out at 0.5 µg/mL in the assay with E.coli 455/7; 8 µg/mL with Providenicia 12052 (setting [1]); 0.06 µg/mL with Staph. aur. 133; 0.06 µg/mL in the assay on Staph. aur. 1756; 0.06 µg/mL in the assay with Staph. aur. FK 422; 0.06 µg/mL in the assay on Streptoc. faecal. 27101. The MIC with Streptoc. faecal. 9790 was 0.06 µg/mL.
In the case of `O=C(O)c1cn(C2CC2)c2c(F)c(N3CCN4CCC3C4)c(F)cc2c1=O` (stereo not drawn) [Beispiel 4, 1-Cyclopropyl-7-(1,4-diazabicyclo[3.2.1]oct-4-yl)-6,8-difluor-1,4-dihydro-4-oxo-3-chinolincarbonsäure], the MIC is 0.5 µg/mL (≈ 1.33 µM) in the assay on E.coli 455/7; 8 µg/mL (≈ 21.3 µM) with Providenicia 12052 (setting [1]); 0.06 µg/mL (≈ 0.16 µM) in the assay with Staph. aur. 133; 0.06 µg/mL (≈ 0.16 µM) in the assay on Staph. aur. 1756; 0.25 µg/mL (≈ 0.666 µM) in the assay with Streptoc. faecal. 9790; 0.5 µg/mL (≈ 1.33 µM) with Pseudomonas aerug. W..
`CN1C2CCC1CN(c1cc3c(cc1F)c(=O)c(C(=O)O)cn3C1CC1)C2` [Beispiel 12, 1-Cyclopropyl-6-fluor-1,4-dihydro-7-(8-methyl-3,8-diazabi-cyclo[3.2.1]oct-3-yl)-4-oxo-3-chinolincarbonsäure]: the MIC in the assay on E.coli 455/7 was 4 µg/mL (≈ 10.8 µM); in the assay with Providenicia 12052, 16 µg/mL (≈ 43.1 µM); with Pseudomonas aerug. W., 0.5 µg/mL (≈ 1.35 µM).
Regarding `O=C(O)c1cn(C2CC2)c2cc(N3CCNCC3)c(F)cc2c1=O` [Ciprofloxacin, 1-Cyclopropyl-6-fluor-1,4-dihydro-4-oxo-7-(1-piperazinyl)-3-chinolincarbonsäure, reference compound], the MIC with E.coli 455/7 came to 2 µg/mL (≈ 6.04 µM); in the assay on Providenicia 12052 (setting [1]), 32 µg/mL (≈ 96.6 µM); with Staph. aur. 133, 0.5 µg/mL (≈ 1.51 µM); with Staph. aur. 1756, 0.5 µg/mL (≈ 1.51 µM); in the assay on Staph. aur. FK 422, 0.5 µg/mL (≈ 1.51 µM); with Streptoc. faecal. 27101, 0.5 µg/mL (≈ 1.51 µM). In addition, the MIC with Streptoc. faecal. 9790 was 0.25 µg/mL (≈ 0.754 µM); with Pseudomonas aerug. W., 0.5 µg/mL (≈ 1.51 µM).

The values are drawn from patent EP0230274A2, “Derivatives of 7-(azabicycloalkyl)-quinoloncarboxylic acid and -naphthyridoncarboxylic acid” (BAYER AG, priority 1986, dated 1987).
